# Publication PMC11290450, “Isocyanides inhibit bacterial pathogens by covalent targeting of essential metabolic enzymes” (Chemical Science, 2024)
# What was measured:
# cytochrome P450 2C9 [1] = target: T1, cytochrome P450 2C9 (Homo sapiens, UniProt P11712); experiment: CYP inhibition assay (Table S3); assay type: biochemical
# T1 construct: gene CYP2C9
# cytochrome P450 2D6 [2] = target: T2, cytochrome P450 2D6 (Homo sapiens, UniProt P10635); experiment: CYP inhibition assay (Table S3); assay type: biochemical
# T2 construct: gene CYP2D6
# cytochrome P450 2D6 [3] = target: T2, cytochrome P450 2D6; experiment: biochemical; set-up: CYP inhibition in human liver microsomes, conversion of isoform-specific substrates; conditions: substrate dextromethorphan; liver microsomes
# Procedure: (§1) To cover a broad range of structurally diverse compounds, we gathered commercially available primary, secondary, tertiary, vinyl and aromatic [compound left out] for antibacterial testing (Table S1 ^†). […] The minimum inhibitory concentration (MIC) of forty-two compounds was determined in Gram-positive Staphylococcus aureus and Gram-negative Escherichia coli cells up to 50 μM. […] The compound was tested against a panel of Gram-positive and Gram-negative pathogens. Although no antibiotic effects against Gram-negative strains were observed, Bacillus subtilis, Listeria monocytogenes, Staphylococcus epidermidis, and Streptococcus pneumoniae could be inhibited at low micromolar concentrations of I16 (Table S2 ^†). […] This was further corroborated by evaluation I16 in four different human cytochrome P450 enzymes (CYPs).
# cytochrome P450 2C9 [4] = target: T1, cytochrome P450 2C9; experiment: biochemical; set-up: CYP inhibition in human liver microsomes, conversion of isoform-specific substrates; conditions: substrate diclofenac; liver microsomes
# Procedure: as §1
# cytochrome P450 1A2 [5] = target: T3, cytochrome P450 1A2 (Homo sapiens, UniProt P05177); experiment: biochemical; set-up: CYP inhibition in human liver microsomes, conversion of isoform-specific substrates; conditions: substrate phenacetin; liver microsomes
# T3 construct: gene CYP1A2
# Procedure: as §1
# cytochrome P450 3A4 [6] = target: T4, cytochrome P450 3A4 (Homo sapiens, UniProt P08684); experiment: biochemical; set-up: CYP inhibition in human liver microsomes, conversion of isoform-specific substrates; conditions: substrate midazolam; liver microsomes
# T4 construct: gene CYP3A4
# Procedure: as §1
# cytochrome P450 3A4 [7] = target: T4, cytochrome P450 3A4; experiment: CYP inhibition assay (Table S3); assay type: biochemical
# S. aureus USA300 Lac = tested on: T5, S. aureus USA300 Lac; experiment: microbe, parasite or virus in culture; set-up: broth microdilution MIC, visible growth (turbidity or pellet); conditions: Staphylococcus aureus, USA300, 20 h
# T5 construct: USA300 LAC
# Procedure: (§2) faecalis, E. faecium. S. epidermidis, S. pyogenes and S. pneumonia strains were cultivated in brain heart infusion medium (BHB, 7.5 g/L brain infusion, 10 g/L heart infusion, 10 g/L casein peptone, 5 g/L NaCl, 2.5 g/L Na2HPO4, 2 g/L glucose). Cell culture Cell culture media and supplements were purchased from Merck. HeLa cells were cultured in Dulbecco’s Modified Eagle Medium (DMEM, high glucose, 4.5 g/L) supplemented with 10% fetal bovine serum (FBS) and 2 mM L-glutamine at 37 °C in a 5% CO2 atmosphere. Accutase (Merck) was used for cell detachment. Minimum inhibitory concentration (MIC) The minimum inhibitory concentration (MIC) was determined by using the broth microdilution assay. 1 µL of compound stock solution in DMSO was pipetted to the wells of row 1 of a sterile flat bottom 96-well plate containing 100 µL growth medium and thoroughly mixed. Subsequently, a 1:1 serial dilution was performed in the growth medium from row 1 to row 10. […] Plates were incubated for 20 h (37 °C, 200 rpm; for Streptococcus pneumoniae DSM30104 and Streptococcus pyogenes ATCC700294: 5% CO2 atmosphere, 37 °C without shaking), and the dilution series were analyzed for microbial growth, indicated by turbidity and/or a pellet. […] MIC values were determined in technical triplicates and confirmed in two or three independent biological experiments. […]
# E. coli K12 [8] = tested on: T6, E. coli K12; experiment: microbe, parasite or virus in culture; set-up: broth microdilution MIC, visible growth (turbidity or pellet); conditions: Escherichia coli, K12, 20 h
# T6 construct: K12
# Procedure: as §2
# [9] = target: T7, glutamine–fructose-6-phosphate aminotransferase (GlmS) (Staphylococcus aureus, UniProt Q2FWA0); experiment: GDH-coupled glutaminase assay; intact protein MS (+[…] Da, truncated adduct); competitive gel-based IA-alkyne labeling; isoDTB-ABPP; assay type: biochemical
# T7 construct: recombinant wild-type GlmS
# A. baumannii ATCC 19606 = tested on: T8, A. baumannii ATCC 19606; experiment: microbe, parasite or virus in culture; set-up: broth microdilution MIC, visible growth (turbidity or pellet); conditions: Acinetobacter baumannii, ATCC19606, 20 h
# T8 construct: ATCC 19606
# Procedure: (§3) faecalis, E. faecium. S. epidermidis, S. pyogenes and S. pneumonia strains were cultivated in brain heart infusion medium (BHB, 7.5 g/L brain infusion, 10 g/L heart infusion, 10 g/L casein peptone, 5 g/L NaCl, 2.5 g/L Na2HPO4, 2 g/L glucose). Cell culture Cell culture media and supplements were purchased from Merck. HeLa cells were cultured in Dulbecco’s Modified Eagle Medium (DMEM, high glucose, 4.5 g/L) supplemented with 10% fetal bovine serum (FBS) and 2 mM L-glutamine at 37 °C in a 5% CO2 atmosphere. Accutase (Merck) was used for cell detachment. Minimum inhibitory concentration (MIC) The minimum inhibitory concentration (MIC) was determined by using the broth microdilution assay. 1 µL of compound stock solution in DMSO was pipetted to the wells of row 1 of a sterile flat bottom 96-well plate containing 100 µL growth medium and thoroughly mixed. Subsequently, a 1:1 serial dilution was performed in the growth medium from row 1 to row 10. 50 µL of bacterial suspension (1:10,000 dilution of an overnight culture in the respective growth medium) was added to each well containing compound and the growth control (row 11). A sterile control containing only medium was included (row 12). The final volume was 100 µL per well. Plates were incubated for 20 h (37 °C, 200 rpm; […] ATCC700294: 5% CO2 atmosphere, 37 °C without shaking), and the dilution series were analyzed for microbial growth, indicated by turbidity and/or a pellet. The lowest concentration in the dilution series at which no growth of bacteria could be observed was defined as the MIC of the compound. MIC values were determined in technical triplicates and confirmed in two or three independent biological experiments. The [compound left out] library was screened once in technical triplicates. The MIC is reported as mean of technical triplicates. If the MIC varied between biological replicates, concentration ranges are indicated.
# A. baumannii 5075 = tested on: T9, A. baumannii 5075; experiment: microbe, parasite or virus in culture; set-up: broth microdilution MIC, visible growth (turbidity or pellet); conditions: Acinetobacter baumannii, 5075, 20 h
# T9 construct: AB5075
# Procedure: as §3
# S. epidermidis RP62 A = tested on: T10, S. epidermidis RP62 A; experiment: microbe, parasite or virus in culture; set-up: broth microdilution MIC, visible growth (turbidity or pellet); conditions: Staphylococcus epidermidis, RP62A, 20 h
# T10 construct: RP62A
# Procedure: as §3
# S. pyogenes ATCC 700294 = tested on: T11, S. pyogenes ATCC 700294; experiment: microbe, parasite or virus in culture; set-up: broth microdilution MIC, visible growth (turbidity or pellet); conditions: Streptococcus pyogenes, ATCC700294, 20 h
# T11 construct: ATCC 700294
# Procedure: as §3
# S. aureus NCTC 8325 = tested on: T12, S. aureus NCTC 8325; experiment: microbe, parasite or virus in culture; set-up: broth microdilution MIC, visible growth (turbidity or pellet); conditions: Staphylococcus aureus, NCTC8325, 20 h
# T12 construct: NCTC 8325
# Procedure: as §3
# S. typhimurium LT2 = tested on: T13, S. typhimurium LT2; experiment: microbe, parasite or virus in culture; set-up: broth microdilution MIC, visible growth (turbidity or pellet); conditions: Salmonella enterica, TYPHIMURIUM, 20 h
# T13 construct: LT2
# Procedure: as §3
# B. subtilis 168 = tested on: T14, B. subtilis 168; experiment: microbe, parasite or virus in culture; set-up: broth microdilution MIC, visible growth (turbidity or pellet); conditions: Bacillus subtilis, 168, 20 h
# T14 construct: 168
# Procedure: as §3
# S. aureus USA300 LAC J2 = tested on: T15, S. aureus USA300 LAC J2; experiment: microbe, parasite or virus in culture; set-up: broth microdilution MIC, visible growth (turbidity or pellet); conditions: Staphylococcus aureus, USA300, 20 h
# T15 construct: USA300 LAC JE2
# Procedure: as §3
# E. faecalis V583 = tested on: T16, E. faecalis V583; experiment: microbe, parasite or virus in culture; set-up: broth microdilution MIC, visible growth (turbidity or pellet); conditions: Enterococcus faecalis, V583, 20 h
# T16 construct: V583
# Procedure: as §3
# E. coli K12 [10] = tested on: T6, E. coli K12; experiment: microbe, parasite or virus in culture; set-up: broth microdilution MIC, visible growth (turbidity or pellet); conditions: Escherichia coli, K12, 20 h; remark: listed apart in the source
# Procedure: as §3
# E. coli UTI89 = tested on: T17, E. coli UTI89; experiment: microbe, parasite or virus in culture; set-up: broth microdilution MIC, visible growth (turbidity or pellet); conditions: Escherichia coli, UTI89, 20 h
# T17 construct: UTI89
# Procedure: as §3
# S. pneumoniae DSM 20567 = tested on: T18, S. pneumoniae DSM 20567; experiment: microbe, parasite or virus in culture; set-up: broth microdilution MIC, visible growth (turbidity or pellet); conditions: Streptococcus pneumoniae, DSM20567, 20 h
# T18 construct: DSM 20567
# Procedure: as §3
# K. pneumoniae DSM 30104 = tested on: T19, K. pneumoniae DSM 30104; experiment: microbe, parasite or virus in culture; set-up: broth microdilution MIC, visible growth (turbidity or pellet); conditions: Klebsiella pneumoniae, DSM30104, 20 h
# T19 construct: DSM 30104
# Procedure: as §3
# P. aeruginosa PAO1 = tested on: T20, P. aeruginosa PAO1; experiment: microbe, parasite or virus in culture; set-up: broth microdilution MIC, visible growth (turbidity or pellet); conditions: Pseudomonas aeruginosa, PAO1, 20 h
# T20 construct: PAO1
# Procedure: as §3
# L. monocytogenes EGD-e = tested on: T21, L. monocytogenes EGD-e; experiment: microbe, parasite or virus in culture; set-up: broth microdilution MIC, visible growth (turbidity or pellet); conditions: Listeria monocytogenes, 20 h
# T21 construct: EGD-e
# Procedure: as §3
# E. faecium DSM17050 = tested on: T22, E. faecium DSM17050; experiment: microbe, parasite or virus in culture; set-up: broth microdilution MIC, visible growth (turbidity or pellet); conditions: Enterococcus faecium, DSM17050, 20 h
# T22 construct: DSM 17050
# Procedure: as §3
# cytochrome P450 1A2 [11] = target: T3, cytochrome P450 1A2; experiment: CYP inhibition assay (Table S3); assay type: biochemical
# [12] = target: T7, glutamine–fructose-6-phosphate aminotransferase (GlmS); experiment: GDH-coupled glutaminase assay (turnover reduced to about […] at […]); assay type: biochemical; conditions: read-out: % residual turnover at 100 μM
# T3 sequence (P05177 2-516): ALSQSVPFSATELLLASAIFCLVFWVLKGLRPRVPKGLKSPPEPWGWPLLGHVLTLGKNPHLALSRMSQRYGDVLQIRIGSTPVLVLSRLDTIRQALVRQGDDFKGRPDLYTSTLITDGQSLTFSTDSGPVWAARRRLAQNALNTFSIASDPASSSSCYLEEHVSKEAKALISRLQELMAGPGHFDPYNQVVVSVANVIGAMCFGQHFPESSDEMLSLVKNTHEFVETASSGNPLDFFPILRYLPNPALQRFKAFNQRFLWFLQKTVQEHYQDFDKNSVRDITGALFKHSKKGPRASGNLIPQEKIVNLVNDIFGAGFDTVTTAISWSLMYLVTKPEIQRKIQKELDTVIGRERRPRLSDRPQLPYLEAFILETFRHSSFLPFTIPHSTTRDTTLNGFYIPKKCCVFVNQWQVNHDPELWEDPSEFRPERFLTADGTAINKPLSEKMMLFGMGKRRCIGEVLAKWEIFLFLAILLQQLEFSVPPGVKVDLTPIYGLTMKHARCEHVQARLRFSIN
# T2 sequence (P10635 whole entry): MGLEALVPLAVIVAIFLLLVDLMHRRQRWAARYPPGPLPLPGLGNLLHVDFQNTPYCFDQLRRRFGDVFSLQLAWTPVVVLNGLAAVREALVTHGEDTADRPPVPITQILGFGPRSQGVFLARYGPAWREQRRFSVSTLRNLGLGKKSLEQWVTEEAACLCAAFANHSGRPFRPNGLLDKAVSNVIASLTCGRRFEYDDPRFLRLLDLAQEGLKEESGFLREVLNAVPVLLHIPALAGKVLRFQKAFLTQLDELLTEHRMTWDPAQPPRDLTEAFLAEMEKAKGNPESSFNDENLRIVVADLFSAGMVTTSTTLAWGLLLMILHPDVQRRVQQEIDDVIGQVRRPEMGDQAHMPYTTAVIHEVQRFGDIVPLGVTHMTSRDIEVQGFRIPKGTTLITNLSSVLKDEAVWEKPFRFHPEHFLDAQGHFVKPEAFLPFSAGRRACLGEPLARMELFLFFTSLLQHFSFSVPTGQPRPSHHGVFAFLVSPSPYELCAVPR
# T7 sequence (Q2FWA0 entry or part of it): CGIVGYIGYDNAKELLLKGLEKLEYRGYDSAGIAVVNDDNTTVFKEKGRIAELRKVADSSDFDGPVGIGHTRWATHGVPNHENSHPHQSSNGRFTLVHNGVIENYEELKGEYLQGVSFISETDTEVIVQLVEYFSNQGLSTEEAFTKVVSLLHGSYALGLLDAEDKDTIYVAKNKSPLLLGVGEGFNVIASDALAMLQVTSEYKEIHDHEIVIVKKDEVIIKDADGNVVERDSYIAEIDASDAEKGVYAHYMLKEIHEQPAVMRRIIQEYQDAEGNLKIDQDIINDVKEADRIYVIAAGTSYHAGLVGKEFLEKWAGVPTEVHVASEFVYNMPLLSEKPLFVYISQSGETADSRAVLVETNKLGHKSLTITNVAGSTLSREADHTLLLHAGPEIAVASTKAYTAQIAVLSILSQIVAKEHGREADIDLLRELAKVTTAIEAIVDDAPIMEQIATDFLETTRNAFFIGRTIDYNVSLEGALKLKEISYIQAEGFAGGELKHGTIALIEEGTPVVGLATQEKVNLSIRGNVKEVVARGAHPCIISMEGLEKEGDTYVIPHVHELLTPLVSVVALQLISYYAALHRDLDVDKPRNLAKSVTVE
# T4 sequence (P08684 2-503): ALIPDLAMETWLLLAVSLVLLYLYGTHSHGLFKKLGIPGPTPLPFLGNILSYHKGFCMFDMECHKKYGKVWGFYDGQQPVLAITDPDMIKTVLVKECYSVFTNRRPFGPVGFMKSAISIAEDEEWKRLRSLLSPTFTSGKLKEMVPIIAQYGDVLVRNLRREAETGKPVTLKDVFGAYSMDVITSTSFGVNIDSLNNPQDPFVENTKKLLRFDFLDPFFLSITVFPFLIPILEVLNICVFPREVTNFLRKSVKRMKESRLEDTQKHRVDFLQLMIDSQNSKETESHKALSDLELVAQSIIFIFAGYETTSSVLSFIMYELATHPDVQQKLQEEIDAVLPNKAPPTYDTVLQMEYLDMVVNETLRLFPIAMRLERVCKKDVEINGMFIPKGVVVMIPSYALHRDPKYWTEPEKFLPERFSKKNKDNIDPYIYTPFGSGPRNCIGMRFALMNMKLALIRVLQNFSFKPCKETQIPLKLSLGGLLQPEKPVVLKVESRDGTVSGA
# T1 sequence (P11712 whole entry): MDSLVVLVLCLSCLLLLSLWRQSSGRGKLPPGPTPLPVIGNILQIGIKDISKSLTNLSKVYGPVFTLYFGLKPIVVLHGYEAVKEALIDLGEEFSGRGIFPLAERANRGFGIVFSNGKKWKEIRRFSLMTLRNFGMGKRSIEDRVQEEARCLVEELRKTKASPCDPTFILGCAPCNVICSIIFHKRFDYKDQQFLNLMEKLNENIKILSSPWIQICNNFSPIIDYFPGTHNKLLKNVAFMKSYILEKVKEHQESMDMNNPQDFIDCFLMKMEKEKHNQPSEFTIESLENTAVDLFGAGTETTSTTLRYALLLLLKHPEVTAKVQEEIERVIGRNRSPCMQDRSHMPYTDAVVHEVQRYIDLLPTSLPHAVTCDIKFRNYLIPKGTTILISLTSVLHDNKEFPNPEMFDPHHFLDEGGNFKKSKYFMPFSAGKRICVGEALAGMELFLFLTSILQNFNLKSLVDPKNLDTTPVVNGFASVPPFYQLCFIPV
compound,measurement,setting,value
[C-]#[N+]C(c1ccc(F)cc1Cl)S(=O)(=O)c1ccc(C)cc1 (stereo not shown) [I16],CYP inhibition assay (Table S3),cytochrome P450 2C9 [1],"I16 inhibited all tested CYP isoforms (2C9, 2D6, 1A2, and 3A4) at nanomolar concentrations"
same,CYP inhibition assay (Table S3),cytochrome P450 2D6 [2],"I16 inhibited all tested CYP isoforms (2C9, 2D6, 1A2, and 3A4) at nanomolar concentrations"
same,IC50,cytochrome P450 2D6 [3],59.3 ± 20 nM
same,IC50,cytochrome P450 2C9 [4],144 ± 53 nM
same,IC50,cytochrome P450 1A2 [5],60.8 ± 17 nM
same,IC50,cytochrome P450 3A4 [6],26.1 ± 8 nM
same,CYP inhibition assay (Table S3),cytochrome P450 3A4 [7],"I16 inhibited all tested CYP isoforms (2C9, 2D6, 1A2, and 3A4) at nanomolar concentrations"
same,MIC,S. aureus USA300 Lac,1.56 µM
same,MIC,E. coli K12 [8],> 50 µM
same,"GDH-coupled glutaminase assay; intact protein MS (+27.5 Da, truncated adduct); c",[9],"glutamate release rate decreased concentration-dependently by I16, corroborating its interaction with the active site cysteine"
same,MIC,A. baumannii ATCC 19606,> 100 µM
same,MIC,A. baumannii 5075,> 100 µM
same,MIC,S. epidermidis RP62 A,1 µM
same,MIC,S. pyogenes ATCC 700294,> 100 µM
same,MIC,S. aureus NCTC 8325,0.78 to 1.56 µM
same,MIC,S. typhimurium LT2,> 100 µM
same,MIC,B. subtilis 168,12.5 µM
same,MIC,S. aureus USA300 LAC J2,1.56 µM
same,MIC,E. faecalis V583,> 100 µM
same,MIC,E. coli K12 [10],> 100 µM
same,MIC,E. coli UTI89,> 100 µM
same,MIC,S. pneumoniae DSM 20567,1.56 µM
same,MIC,K. pneumoniae DSM 30104,> 100 µM
same,MIC,P. aeruginosa PAO1,> 100 µM
same,MIC,L. monocytogenes EGD-e,1 µM
same,MIC,E. faecium DSM17050,> 100 µM
same,CYP inhibition assay (Table S3),cytochrome P450 1A2 [11],"I16 inhibited all tested CYP isoforms (2C9, 2D6, 1A2, and 3A4) at nanomolar concentrations"
"NC(=O)CI [IA, iodoacetamide]",remaining activity at 100 µM,[12],~35%
